The numbers were not newly measured in paper PMC3892053, “Pharmacokinetic/pharmacodynamic modeling for the determination of a cimicoxib dosing regimen in the dog” (BMC Veterinary Research, 2013), which cites them from elsewhere.

A word on the half-life: it is the time in which the quantity being followed falls by half.

Where two headings read alike, the source gives them in different places.

The conditions of data set [1]: cited from earlier work.
The next data set has as its system nociceptive threshold. Details: method as in PMID 19186002. The note with it: rats, given systemically; cited from earlier work.
The next data set deals with COX-1/COX-2. The note with it: cited from earlier work; for greater potency for COX-2 inhibition: highly selective COX-2 inhibitors.
A further data set relates to g.i.t side effects. Set-up: method as in PMID 16871494. The note with it: large scale survey, mainly vomiting; cited from earlier work.
The test system of a further data set is wound healing. Details: method as in PMID 19175721. The note with it: mechanism independent of prostaglandin synthesis; cited from earlier work.
Setting [2] is: as quoted in Discussion, no reference given.
Setting [3] is: population PK survey in osteoarthritic dogs.

Consider `CC(C(=O)O)c1ccc2c(c1)[nH]c1ccc(Cl)cc12` (stereo not drawn) [Carprofen], for which, in data set [1] (dogs), the half-life entry is on record as “about 9 h”.

As to `Cc1ccc(-c2cc(C(F)(F)F)nn2-c2ccc(S(N)(=O)=O)cc2)cc1` [celecoxib], the “hypoalgesia (ipsilateral nociceptive threshold raised above basal values)” value (“hypoalgesia” for short) in the data set with nociceptive threshold is recorded as “induced a state of hypoalgesia”.

In the case of `CC1(C)OC(=O)C(OCC2CC2)=C1c1ccc(S(C)(=O)=O)cc1` [firocoxib], the “greater potency for COX-2 inhibition” value with COX-1/COX-2 was “more than 100 fold”. For the same molecule, the COX-1/COX-2 selectivity index with COX-1/COX-2 (whole blood assay) is given as 384. Besides, the “withdrawal rate associated with g.i.t side effects” value in the data set on g.i.t side effects is listed as 2.9 % of dogs. Besides, the “effect on wound healing” value in the data set on wound healing is given as “slow down wound healing”. The half-life in data set [1] (setting [2]) is 7 h; in data set [1] (mixed-breed dogs) it was 5.9 h. In addition, in data set [1] (dog), the plasma clearance was 7.7 mL/min/kg.

In the case of `COc1ccc2c(c1)c(CC(=O)O)c(C)n2C(=O)c1ccc(Cl)cc1` [indomethacin], the “hypoalgesia” value in the data set on nociceptive threshold is “not observed”.

For the molecule `NS(=O)(=O)c1ccc(-n2nc(C(F)(F)F)cc2-c2ccc(F)cc2)cc1` [mavacoxib], in data set [1] (dog, in vivo), the half-life is 415 h and the plasma clearance is 0.045 mL/min/kg. Besides, the “half-life of some beagle dogs” value in data set [1] (laboratory beagle dogs) is greater than 720 h. Moreover, in data set [1] (setting [3]), the “terminal half-life in some dogs (5% of the population)” value is recorded as “exceeded 80 days”; the “terminal half-life, extreme values” is recorded as “up to 140 days”; the “typical terminal half-life (population mean)” value was 1060 h.

For `CN1C(C(=O)Nc2ccccn2)=C(O)c2ccccc2S1(=O)=O` [piroxicam], the “hypoalgesia” value with nociceptive threshold is listed as “not observed”.

`CCc1ccc(Nc2c(F)c(F)cc(F)c2F)c(CC(=O)O)c1` [robenacoxib]: the “greater potency for COX-2 inhibition” value in the data set with COX-1/COX-2 is listed as “more than 100 fold”. For the same molecule, the half-life in data set [1] (setting [2]) was 1 h; in data set [1] (beagle dogs) it was 0.63 h. Moreover, in data set [1] (dog), the plasma clearance was 13.5 mL/min/kg.
